Patent publication US20240082414A1, “HUMAN TUMOR NECROSIS FACTOR ALPHA ANTIBODY GLUCOCORTICOID CONJUGATES” (Eli Lilly and Company, priority 2022, published 2024)

System: anti-drug antibodies against adalimumab
Assay: ACE-Bridge binding to cynomolgus monkey anti-drug antibodies against adalimumab
Conditions: FIG. 3; AP-HIMS from monkeys hyperimmunized with adalimumab; bridging with the labeled test antibody
Description: Example 5a. […] The anti-adalimumab antibodies were detected using a titration of AP-HIMS in an ACE-Bridge assay. The assay was developed following the FDA Guidance on Immunogenicity testing. […] The following day, plates were washed three times with TBST and the captured anti-adalimumab antibodies were acid eluted using 65 μL/well of 300 mM acetic acid (Fisher Scientific, A38-500) for 5 min at room temperature. […] Next, 50 μL of the acid eluted samples were added to the polypropylene plate containing the mixture in neutralizing buffer and the ADA and were allowed to bridge to the labeled antibodies for 1 h at room temperature. MSD Gold 96-well streptavidin plates (Mesoscale, L15SA-1) were washed and blocked with TBS+1% BSA for 1 h at room temperature, then washed, and 80 μL of bridged samples were added to the plate for 1 h. The plates were washed three times with TBST, and 150 μL/well of 2×MSD Buffer (Mesoscale, R92TC-2) was added to the plates. Plates were read on an MSD SQ120 reader to provide the Tier 1 signal expressed as electro chemiluminescent units (ECLU).
The resulting ECLU signal was then plotted as a function of the concentration of AP-HIMS tested.

## adalimumab: other anti-TNFα therapeutic antibody [reference compound]
  maximum ECLU signal: 40000 ECLU
